Assay [1] deals with T1, Recombinant STAT3 protein (STAT3 (G127-I722)) (Homo sapiens, UniProt P40763).
T1 construct: Recombinant STAT3 protein (STAT3 (G127-I722))
As to the kind of experiment: STAT3 Fluorescence Polarization (FP) Assay. As to conditions: STAT3 25 nM, probe 5-FAM-GpYLPQTV-NH2 2 nM, 45-minute incubation; read-out: STAT3 (FP assay IC50). Type of assay: binding. An outline of the steps:
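Displacement of a 2 nM 5-FAM-labelled pY peptide (GpYLPQTV) from 25 nM recombinant STAT3 (G127-I722) was monitored by fluorescence polarization. Incubation lasted 45 min at room temperature in pH 7.4 HEPES buffer containing 1% DMSO.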
(In fluorescence polarisation assays a small probe gives low polarisation when free and higher when bound to something large.)

In assay [2] the target is T2, Recombinant STAT6 protein (STAT6 (W123-T658)) (Homo sapiens, UniProt P42226).
T2 construct: Recombinant STAT6 protein (STAT6 (W123-T658))
T2 sequence (P42226 123-658): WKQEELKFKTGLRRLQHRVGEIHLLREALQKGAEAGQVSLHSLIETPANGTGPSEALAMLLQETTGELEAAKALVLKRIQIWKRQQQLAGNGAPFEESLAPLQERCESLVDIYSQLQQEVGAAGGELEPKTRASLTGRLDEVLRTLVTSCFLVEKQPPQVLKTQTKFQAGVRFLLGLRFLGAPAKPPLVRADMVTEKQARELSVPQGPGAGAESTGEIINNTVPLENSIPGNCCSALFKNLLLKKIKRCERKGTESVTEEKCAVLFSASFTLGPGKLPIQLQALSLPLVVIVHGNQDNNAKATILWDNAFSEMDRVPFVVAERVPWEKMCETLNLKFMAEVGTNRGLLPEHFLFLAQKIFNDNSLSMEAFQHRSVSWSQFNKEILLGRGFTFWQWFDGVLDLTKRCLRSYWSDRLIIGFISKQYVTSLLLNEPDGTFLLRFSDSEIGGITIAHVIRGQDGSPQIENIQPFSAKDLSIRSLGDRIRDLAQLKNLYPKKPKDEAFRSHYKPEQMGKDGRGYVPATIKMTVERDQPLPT
Put plainly: STAT6 Fluorescence Polarization (FP) Assay. Type of assay: binding. As to conditions: STAT6 250 nM, probe 5-FAM-Ap[…]-NH2 2 nM, 45-minute incubation; read-out: STAT6 (FP assay IC50). The method in brief: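 Displacement of a fluorescent phosphotyrosine peptide (2 nM) from 250 nM STAT6 (W123-T658) is measured by polarization after a 45-minute room-temperature incubation. Compounds are titrated serially at 1% DMSO, and IC50 values derive from regression of mP on log concentration.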

This is an account of results in patent US20250215029A1 (Recludix Pharma, Inc., priority 2022, published 2025).

T1 sequence (P40763 127-722): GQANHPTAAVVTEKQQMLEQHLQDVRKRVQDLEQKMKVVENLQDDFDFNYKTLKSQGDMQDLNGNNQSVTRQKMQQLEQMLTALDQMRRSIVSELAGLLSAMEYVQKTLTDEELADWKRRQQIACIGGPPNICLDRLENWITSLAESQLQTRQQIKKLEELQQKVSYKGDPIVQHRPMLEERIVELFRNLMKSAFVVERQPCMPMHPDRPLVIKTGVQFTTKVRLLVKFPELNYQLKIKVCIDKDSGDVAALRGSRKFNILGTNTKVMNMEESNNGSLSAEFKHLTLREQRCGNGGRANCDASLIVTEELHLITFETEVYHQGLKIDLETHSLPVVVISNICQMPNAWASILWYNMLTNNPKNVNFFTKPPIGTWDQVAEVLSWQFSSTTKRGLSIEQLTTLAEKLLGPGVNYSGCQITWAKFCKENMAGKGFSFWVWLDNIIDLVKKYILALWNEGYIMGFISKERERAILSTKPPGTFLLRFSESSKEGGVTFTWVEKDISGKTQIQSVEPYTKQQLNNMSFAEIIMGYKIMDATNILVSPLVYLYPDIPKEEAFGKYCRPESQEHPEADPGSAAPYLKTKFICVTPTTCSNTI

Turning to `C[C@@H]1C[C@H](NC(=O)c2cc3cc(C(F)(F)P(=O)(O)O)ccc3s2)C(=O)N2[C@H](CC[C@H]2C(=O)N2CC[C@@H](c3ccccc3)C2)C[C@H]1O` [Compound 100, (difluoro(2-(((3S,6S,8R,9R, 10aR)-9-hydroxy-8-methyl-5-oxo-3-((S)-3-phenylpyrrolidine-1-carbonyl)decahydropyrrolo [1,2-a]azocin-6-yl)carbamoyl)benzo[b]thiophen-5-yl)methyl) phosphonic acid], the values for the IC50 in assay [1] and in assay [2] were 1 to 10 µM and at most 0.3 µM, respectively.
Consider `CC1CCC[C@H](NC(=O)c2cc3cc(C(F)(F)P(=O)(O)O)ccc3s2)C(=O)N2[C@@H]1CC[C@H]2C(=O)N1CC(c2cccnc2)C1` (stereo partly drawn) [Compound 103, (difluoro(2-(((3S,6S,10aR)-10-methyl-5-oxo-3-(3-(pyridin-3-yl)azetidine-1-carbonyl)decahydropyrrolo [1,2-a]azocin-6-yl)carbamoyl)benzo[b]thiophen-5-yl)methyl) phosphonic acid], for which the concentration for half-maximal inhibition (IC50) – broadly, the midpoint of a concentration-inhibition curve – in assay [1] is under 0.1 µM; in assay [2], 3 to 30 µM.
Consider `O=C(N[C@H]1CCC[C@H]2CC[C@@H](C(=O)N3CC(c4ccccn4)C3)N2C1=O)c1cc2cc(C(F)(F)P(=O)(O)O)ccc2s1` [Compound 108, (difluoro(2-(((3S,6S,9aS)-5-oxo-3-(3-(pyridin-2-yl)azetidine-1-carbonyl)octahydro-1H-pyrrolo[1,2-a]azepin-6-yl)carbamoyl)benzo[b]thiophen-5-yl)methyl) phosphonic acid], for which the IC50 in assay [1] is under 0.1 µM; in assay [2], 0.3 to 3 µM.
The corresponding values for `CN(C(=O)[C@@H]1CC[C@@H]2CCC[C@H](NC(=O)c3cc4cc(C(F)(F)P(=O)(O)O)ccc4s3)C(=O)N21)c1ccccc1` [Compound 111, (Difluoro(2-(((3S,6S,9aS)-3-(methyl(phenyl)carbamoyl)-5-oxooctahydro-1H-pyrrolo[1,2-a]azepin-6-yl)carbamoyl)benzo[b]thiophen-5-yl)methyl)phosphonic acid] are 1 to 10 µM and 0.3 to 3 µM.
Taken in the same sequence, the figures for `O=C(N[C@H]1CCCC[C@H]2CC[C@@H](C(=O)N3CC(N4CCOCC4)C3)N2C1=O)c1cc2cc(C(F)(F)P(=O)(O)O)ccc2s1` [Compound 113, (difluoro(2-(((3S,6S, 10aS)-3-(3-morpho-linoazetidine-1-carbonyl)-5-oxodecahydropyrrolo[1,2-a]azocin-6-yl)carbamoyl)benzo[b]thiophen-5-yl)methyl)ph osphonic acid] were 0.1 to 1 µM and 3 to 30 µM.
On to `O=C(N[C@H]1CCC2(CC2)C[C@H]2CC[C@@H](C(=O)N3CC(C(=O)N4CCOCC4)C3)N2C1=O)c1cc2cc(C(F)(F)P(=O)(O)O)ccc2s1` [Compound 114, (difluoro(2-(((3′S,6′S, 10aR)-3′-(3-(morpholine-4-carbonyl)azetidine-1-carbonyl)-5′-oxooctahydro-1′H-spiro [cyclopropane-1,9′-pyrrolo[1,2-a]azocin]-6′-yl)carbamoyl)benzo[b]thiophen-5-yl)methyl) phosphonic acid], for which the IC50 in assay [1] was under 0.1 µM; in assay [2], 3 to 30 µM.
Taken in the same sequence, the figures for `O=C(N[C@H]1CC2(CC[C@H]3CC[C@@H](C(=O)N4CC(C(=O)N5CCOCC5)C4)N3C1=O)CC2)c1cc2cc(C(F)(F)P(=O)(O)O)ccc2s1` [Compound 115, (difluoro(2-(((3′S,6′S, 10a′S)-3′-(3-(morpholine-4-carbonyl)azetidine-1-carbonyl)-5′-oxooctahydro-5′H-spiro [cyclopropane-1,8′-pyrrolo[1,2-a]azocin]-6′-yl)carbamoyl)benzo[b]thiophen-5-yl)methyl) phosphonic acid] were under 0.1 µM and 3 to 30 µM.
The corresponding values for `CC(=O)N1C[C@H](NC(=O)[C@@H]2CC[C@@H]3CCCC[C@H](NC(=O)c4cc5cc(C(F)(F)P(=O)(O)O)ccc5s4)C(=O)N32)[C@@H](O)C1` [Compound 116, ((2-(((3S, 6S,10aS)-3-(((3S,4S)-1-acetyl-4-hydroxypyrrolidin-3-yl)carbamoyl)-5-oxodecahydro-pyrrolo [1,2-a]azocin-6-yl)carbamoyl)benzo[b]thiophen-5-yl)difluoromethyl) phosphonic acid] are 0.1 to 1 µM and 0.3 to 3 µM.
Taken in the same sequence, the figures for `O=C(N[C@H]1CCCC[C@H]2CC[C@@H](C(=O)N3CC(c4cccnc4)C3)N2C1=O)c1cc2cc(C(F)(F)P(=O)(O)O)ccc2s1` [Compound 117, (difluoro(2-(((3S,6S,10aS)-5-oxo-3-(3-(pyridin-3-yl)azetidine-1-carbonyl)decahydropyrrolo [1,2-a]azocin-6-yl)carbamoyl)benzo[b]thiophen-5-yl)methyl) phosphonic acid] were under 0.1 µM and 3 to 30 µM.
For `O=C(N[C@H]1CCCC[C@H]2CC[C@@H](C(=O)N3CC(C4CCOCC4)C3)N2C1=O)c1cc2cc(C(F)(F)P(=O)(O)O)ccc2s1` [Compound 118A, (difluoro(2-(((3S,6S,10a S)-5-oxo-3-(3-(tetrahydro-2H-pyran-4-yl)azetidine-1-carbonyl)decahydropyrrolo-[1,2a]azocin-6-yl)carbamoyl)benzo[b]thiophen-5-yl)methyl) phosphonic acid], the half-inhibitory concentration (IC50) in assay [1] is 0.1 to 1 µM; in assay [2], 3 to 30 µM.
Taken in the same sequence, the figures for `O=C(N[C@H]1CCCC[C@H]2CC[C@@H](C(=O)N3CCN(C(=O)c4cn[nH]c4)CC3)N2C1=O)c1cc2cc(C(F)(F)P(=O)(O)O)ccc2s1` [Compound 118B, ((2-(((3S,6S,10a S)-3-(4-(1H-pyrazole-4-carbonyl)piperazine-1-carbonyl)-5-oxodecahydro-pyrrolo [1,2-a]azocin-6-yl)carbamoyl)benzo[b]thiophen-5-yl)difluoromethyl) phosphonic acid] were 0.1 to 1 µM and 0.3 to 3 µM.
The corresponding values for `O=C(N[C@H]1CCC[C@H]2CC[C@@H](C(=O)N3CC(C4CCOCC4)C3)N2C1=O)c1cc2cc(C(F)(F)P(=O)(O)O)ccc2s1` [Compound 119, (difluoro(2-(((3S,6S,9aS)-5-oxo-3-(3-(tetrahydro-2H-pyran-4-yl)azetidine-1-carbonyl)octahydro-1H-pyrrolo[1,2-a]azepin-6-yl)carbamoyl)benzo[b]thiophen-5-yl)methyl) phosphonic acid] are 0.1 to 1 µM and 3 to 30 µM.
As for `CC(=O)N1C[C@H](NC(=O)[C@@H]2CC[C@@H]3CCC[C@H](NC(=O)c4cc5cc(C(F)(F)P(=O)(O)O)ccc5s4)C(=O)N32)[C@@H](O)C1` [Compound 120, ((2-(((3S,6S,9aS)-3-(((3S,4S)-1-acetyl-4-hydroxypyrrolidin-3-yl)carbamoyl)-5-oxooctahydro-1H-pyrrolo[1,2-a]azepin-6-yl)carbamoyl)benzo[b]thiophen-5-yl)difluoromethyl) phosphonic acid], the concentration for half-maximal inhibition (IC50) in assay [1] fell in the range of 0.1 to 1 µM; in assay [2] it was 0.3 to 3 µM.
Taken in the same sequence, the figures for `O=C(N[C@H]1CCC[C@H]2CC[C@@H](C(=O)Nc3ccc(-c4ccccc4)cc3)N2C1=O)c1cc2cc(C(F)(F)P(=O)(O)O)ccc2s1` [Compound 121, ((2-(((3S,6S,9aS)-3-([1,1′-biphenyl]-4-ylcarbamoyl)-5-oxooctahydro-1H-pyrrolo[1,2-a]azepin-6-yl)carbamoyl)benzo[b]thiophen-5-yl)difluoromethyl) phosphonic acid] were 0.1 to 1 µM and 0.3 to 3 µM.
Taken in the same sequence, the figures for `CCCC(=O)NC1(c2ccccn2)CN(C(=O)[C@@H]2CC[C@@H]3CCCC[C@H](NC(=O)c4cc5cc(C(F)(F)P(=O)(O)O)ccc5s4)C(=O)N32)C1` [Compound 122, ((2-(((3S,6S,10aS)-3-(3-butyramido-3-(pyridin-2-yl)azetidine-1-carbonyl)-5-oxodecahydropyrrolo[1,2-a]azocin-6-yl)carbamoyl)benzo[b]thiophen-5-yl)difluoromethyl)phosphonic acid] were under 0.1 µM and 3 to 30 µM.
Regarding `O=C(N[C@H]1CCCC[C@H]2CC[C@@H](C(=O)N3CC(NC(=O)C4CC4)(c4ccccn4)C3)N2C1=O)c1cc2cc(C(F)(F)P(=O)(O)O)ccc2s1` [Compound 123, ((2-(((3S,6S, 10aS)-3-(3-(cyclopropane-carboxamido)-3-(pyridin-2-yl)azetidine-1-carbonyl)-5-oxodeca-hydropyrrolo [1,2-a]azocin-6-yl)carbamoyl)benzo[b]thiophen-5-yl)difluoromethyl) phosphonic acid], the concentration for half-maximal inhibition (IC50) in assay [1] is under 0.1 µM; in assay [2] it was 3 to 30 µM.
